{"source": "patent US20020107193A1", "about": "“Therapeutic uses for IP3 receptor-mediated calcium channel modulators” (priority 2000, published 2002)", "key": {"NF-κB": {"system": "NF-κB", "assay": "EMSA of NF-κB binding activity in cultured primary cortical neurons", "assay_type": "cell-based, rat", "procedure": "Cerebral cortices were removed from embryonic day 18 Sprague-Dawley rats (Harlan, Indianapolis, Ind.). Cells were dissociated as described previously (Mattson et al., 1995, J. Neurochem. 65:1740-1751.) and were seeded into polyethyleneimine-coated 60 mm culture dishes containing Eagle's Minimum Essential Medium supplemented with 26 mM NaHCO3, 40 mM glucose, 20 mM KCl, 1 mM sodium pyruvate, 10% (v/v) heat-inactivated fetal bovine serum (Sigma, St. Louis, Mo.), and 0.001% gentamycin sulfate. After a 3-5 h incubation period to allow for cell attachment, the medium was replaced with 2 ml of Neurobasal Medium with B27 supplements (GIBCO Life Technologies, Grand Island, N.Y.). […] Experimental treatments were performed on 7-to-9-day-old neuronal cultures in which there were approximately 5% contaminating glial cells.\nTotal cell extracts were prepared as described (Baeuerle and Baltimore, 1988, Cell 53:211-217). Briefly, cells were harvested, washed twice with ice-cold PBS and lysed for 30 min at 4° C. in Totex buffer (20 mM HEPES, pH 7.9, 350 mM NaC1, 20% glycerol, 1% NP-40, 1 mM MgC12, 0.5 mM EDTA, 0.1 mM EGTA, 5 mM DTT, 0.1% PMSF, 1% aprotinin, 4 μg/ml leupeptin). Samples were centrifuged at 14,000× g for 10 min and aliquots of supernatant were collected and stored at −70° C. until taken for assay. The protein content of the extract (supernatant) was measured by Bradford method (BIO-RAD Laboratories, Ercules, Calif., USA).\nAfter 20 min at room temperature, reaction products were separated on a 7% non-denaturing polyacrylamide gel. Competition experiments were performed by incubating extracts with labeled oligonucleotide probe in the presence of 100-fold molar excess unlabeled NF-KB or CREB oligonucleotide. To characterize the NF-KB complexes, supershift assays were performed. Extracts were preincubated for 45 min at room temperature with antibodies recognizing either p50 or p65 sub-units of NF-κB (Santa Cruz Biotechnology, Santa Cruz, Calif.) or c-Fos (Oncogene Research Products, Cambridge, Mass.). The mixtures were further incubated with ^32P-labeled probe and resolved as described above. Radioactivity of dried gels was detected by exposure to Kodak X-Omat film and images on the developed film were scanned into a computer using a UMAX 1200s scanner. Densitometry was performed using Scion Image software (Scion Inc., Frederick, Md.). Paint Shop Pro software (JASC Inc. Minneapolis, Minn.) was used for preparation of the final figures.\nThe possible involvement of endoplasmic reticulum pools of intracellular calcium regulated by IP3 receptors in controlling basal levels of NF-κB was investigated using Xestospongin C (XeC) a specific membrane permeable modulator of IP3-mediated Ca^2+release (Gafni et al., 1997, Neuron 19:723-733; Hu et al., 1999, J. Biol. Chem. 274:33995-33998), and thapsigargin (Tg), a specific inhibitor of ER calcium/ATPase (Thastrup et al., 1990, Proc. Natl. Acad. Sci. USA 87:2466-2470; Davidson and Varhol, 1995, J. Biol. Chem. 270:11731-11734.). Cultured primary cortical neurons were treated with either 1 μM XeC, 100 nM Tg or vehicle for 6 h and protein extracts were analyzed for NF-κB binding activity by EMSA electrophoresis."}, "[1]": {"system": "macrophage-tropic CCR5-utilizing HIV CSF", "assay": "p24 antigen in media of HIV-infected peripheral blood lymphocytes", "assay_type": "cell-based", "conditions": "for p24 levels, of controls: day 2", "procedure": "Peripheral blood lymphocytes, previously stimulated for 72 hours with PHA, were divided into 3 groups, designated T-HIV (RPMI-10 media containing 1 μM XeC and 0.1% DMSO), N-HIV (RPMI-10 media containing 0.1% DMSO) and HIV (RPMI-10 media). […] The cells were then infected with a macrophage-tropic CCR5-utilizing HIV CSF for 3 hours at 37° and then washed to remove excess virus. All groups were cultured in RPMI-10% FCS+10U/ml IL-2. Referring to FIGS. 7-11, cells were incubated at 37° C. in 5% CO2. At stated time points shown in the aforementioned figures, spent media was removed and replace with fresh media. The media was tested for the presence of p24 antigen as a surrogate for HIV infection and replication. […] The significance of using the CCR5 utilizing macrophage-tropic virus JR-CSF is that this is the type of virus generally transmitted sexually."}, "[Ca^2+]i": {"system": "[Ca^2+]i", "assay": "Intracellular calcium increase caused by glutamate in neurons", "assay_type": "cell-based", "conditions": "XeC treatment; data not shown", "excerpt": "Therefore, all inducers of NFκB tested here have in common the ability to initiate calcium release through ER IP3 receptors, either through increasing intracellular calcium, activating production of IP3, or both."}, "immune cell line": {"system": "immune cell line", "assay": "Proinflammatory cytokine production in an immune cell line", "assay_type": "cell-based"}, "IP3 receptor": {"system": "IP3 receptor", "conditions": "Gafni et al., 1997; cited from earlier work"}, "cardiac cells": {"system": "cardiac cells", "conditions": "Hu et al., 1999, cited from earlier work"}}, "note": "Entries after “also recorded” stand apart in the source; their conditions may differ."}
{"smiles": "C1CCC[C@H]2CCCN3CC[C@@H](CCCCCC[C@@H]4CCCN5CC[C@@H](CC1)O[C@@H]45)O[C@@H]23", "note": "[XeC, Xestospongin C]", "values": [{"measurement": "effect on TNFα-induced NF-κB activation", "setting": "NF-κB; 1 μM XeC 30 min prior to 100 ng/ml TNFα for 6 h", "result": "completely abolished; also recorded: significantly inhibited"}, {"measurement": "effect on thapsigargin-induced elevation in NF-κB binding", "setting": "NF-κB; 1 μM XeC pretreatment, 100 nM Tg, 6 h", "result": "completely abolished the elevation"}, {"measurement": "effect on glutamate-induced elevation in NF-κB binding", "setting": "NF-κB; 1 μM XeC pretreatment, 20 μM glutamate, 6 h", "result": "completely abolished the elevation; also recorded: NF-κB binding below that of control; also recorded: totally abolish this induction"}, {"measurement": "basal NF-κB binding activity relative to control levels", "setting": "NF-κB; cultured primary cortical neurons, 6 h, 1 μM XeC or 100 nM Tg, EMSA", "result": "statistically significant (p<0.05) reduction; also recorded: can inhibit basal levels of NF-κB binding"}, {"measurement": "p24 antigen as surrogate for HIV infection and replication, relative to DMSO", "setting": "[1]; 1 μM XeC, 0.1% DMSO, overall statement", "result": "inhibition"}, {"measurement": "p24 levels, of controls", "setting": "[1]; X1: XeC once 2 hours pre-infection, FIG. 7", "result": "~50", "unit": "%"}, {"measurement": "p24 levels", "setting": "[1]; X1: XeC once 2 hours pre-infection, day 3, FIG. 7", "result": "increased to approximately control levels"}, {"measurement": "p24 levels", "setting": "[1]; X1: XeC once pre-infection, day 3, third experiment, FIG. 10", "result": "reduced relative to D1 and D2"}, {"measurement": "p24 levels", "setting": "[1]; X1: XeC once pre-infection, day 4, third experiment, FIG. 10", "result": "increased to near control levels"}, {"measurement": "p24 levels", "setting": "[1]; X1: XeC once pre-infection, subsequent experiment, FIG. 8", "result": "no effect was seen"}, {"measurement": "p24 levels, of controls", "setting": "[1]; X2: XeC 2 hours pre-infection and 6 hours post-infection, FIG. 7", "result": "approximately 80%"}, {"measurement": "p24 levels", "setting": "[1]; X2: XeC pre- and post-infection, day 3, FIG. 7", "result": "increased to approximately control levels"}, {"measurement": "p24 levels", "setting": "[1]; X2: XeC pre- and post-infection, day 3, third experiment, FIG. 10", "result": "reduced relative to D1 and D2"}, {"measurement": "p24 levels", "setting": "[1]; X2: XeC pre- and post-infection, day 4, FIG. 9", "result": "increase to near wild-type levels"}, {"measurement": "p24 levels, of the DMSO controls", "setting": "[1]; X2: XeC pre- and post-infection, day 4, third experiment, FIG. 10", "result": "approximately 50%"}, {"measurement": "p24 levels", "setting": "[1]; X2: XeC pre- and post-infection, days 2 and 3, subsequent experiment, FIG. 8", "result": "greatly reduced"}, {"measurement": "increase in [Ca^2+]i caused by glutamate", "setting": "[Ca^2+]i", "result": "did not erase the increase"}, {"measurement": "proinflammatory cytokine production", "setting": "immune cell line", "result": "inhibited"}, {"measurement": "block of IP3-mediated calcium release", "setting": "IP3 receptor", "result": "potent blockers"}, {"measurement": "frequency of calcium oscillations", "setting": "cardiac cells", "result": "decreased the frequency"}, {"measurement": "NF-κB activity", "setting": "cardiac cells; histamine stimulation", "result": "parallel decrease"}]}
